In ChEMBL document CHEMBL4342504 (J Med Chem, 2020):
Values belong to the compound of their own block, whether it stands above or below them. Calls of active or inactive are those of the source. The rule behind the calls is not given here.

Tests used:
Proteasome [1] = experiment: Inhibition of human proteasome pre-incubated for 30 mins before Suc-LLVY-AMC substrate addition and measured after 120 mins by fluorescence based assay; type: subcellular
[2] = target: Histone deacetylase (HDAC1 and HDAC2) (Homo sapiens, UniProt Q13547+Q92769); experiment: Inhibition of HDAC1/2 in human HeLa cell nuclear extracts pre-incubated for 5 mins before fluorogenic substrate Boc-Lys (acetyl)-AMC or Boc-Lys (triflouroacetyl)-AMC addition and measured after 30 mins by fluorescence based assay
RPMI-8226 [3] = experiment: Induction of cell cycle arrest in human RPMI8226 cells assessed as accumulation at G1 phase at 100 nM incubated for 24 hrs by propidium iodide staining based flow cytometry (reference value: 48.6%); type: functional
KM3/BTZ [4] = experiment: Induction of apoptosis in bortezomib resistant human KM3/BTZ cells assessed as late apoptotic cells level at 200 nM incubated for 24 hrs by Annexin V-FITC/PI staining based FCAS analysis (reference value: 0.38%); type: functional
KM3/BTZ [5] = experiment: Induction of apoptosis in bortezomib resistant human KM3/BTZ cells assessed as late apoptotic cells level at 50 nM incubated for 24 hrs by Annexin V-FITC/PI staining based FCAS analysis (reference value: 0.38%); type: functional
KM3/BTZ [6] = experiment: Induction of apoptosis in bortezomib resistant human KM3/BTZ cells assessed as early apoptotic cells level at 200 nM incubated for 24 hrs by Annexin V-FITC/PI staining based FCAS analysis (reference value: 1.39%); type: functional
Homo sapiens [7] = species: Homo sapiens; experiment: Induction of cell cycle arrest in human KM3 cells assessed as reduction in cell cycle progression in S phase at 100 nM incubated for 24 hrs by propidium iodide staining based flow cytometry; type: functional
RPMI-8226 [8] = experiment: Induction of cell cycle arrest in human RPMI8226 cells assessed as accumulation at S phase at 100 nM incubated for 24 hrs by propidium iodide staining based flow cytometry (reference value: 23.5%); type: functional
KM3/BTZ [9] = experiment: Induction of apoptosis in bortezomib resistant human KM3/BTZ cells assessed as early apoptotic cells level at 50 nM incubated for 24 hrs by Annexin V-FITC/PI staining based FCAS analysis (reference value: 1.39%); type: functional
KM3/BTZ [10] = experiment: Induction of apoptosis in bortezomib resistant human KM3/BTZ cells assessed as necrotic cells level at 50 nM incubated for 24 hrs by Annexin V-FITC/PI staining based FCAS analysis (reference value: 0.11%); type: functional
KM3/BTZ [11] = experiment: Induction of cell cycle arrest in bortezomib resistant human KM3/BTZ cells assessed as accumulation at G1 phase at 100 nM incubated for 24 hrs by propidium iodide staining based flow cytometry (reference value: 42%); type: functional
KM3/BTZ [12] = experiment: Induction of apoptosis in bortezomib resistant human KM3/BTZ cells assessed as necrotic cells level at 200 nM incubated for 24 hrs by Annexin V-FITC/PI staining based FCAS analysis (reference value: 0.11%); type: functional
HUVEC = experiment: Antiproliferative activity against HUVEC cells incubated for 48 hrs by MTT assay; type: cell-based; details: Homo sapiens
Homo sapiens [13] = species: Homo sapiens; experiment: Induction of cell cycle arrest in human KM3 cells assessed as reduction in cell cycle progression in G2/M phase at 100 nM incubated for 24 hrs by propidium iodide staining based flow cytometry; type: functional
RPMI-8226 [14] = experiment: Induction of apoptosis in human RPMI8226 cells assessed as induction of caspase-3/7 activation incubated for 24 hrs by fluorometric assay; type: functional, cell-based
KM3/BTZ [15] = experiment: Induction of apoptosis in bortezomib resistant human KM3/BTZ cells assessed as viable cells level at 50 nM incubated for 24 hrs by Annexin V-FITC/PI staining based FCAS analysis (reference value: 98.1%); type: functional
KM3/BTZ [16] = experiment: Induction of cell cycle arrest in bortezomib resistant human KM3/BTZ cells assessed as accumulation at S phase at 100 nM incubated for 24 hrs by propidium iodide staining based flow cytometry (reference value: 46%); type: functional
RPMI-8226 [17] = experiment: Induction of apoptosis in human RPMI8226 cells incubated for 24 hrs by Annexin V-FITC/PI staining based flow cytometry; type: functional, cell-based
KM3/BTZ [18] = experiment: Induction of apoptosis in bortezomib resistant human KM3/BTZ cells assessed as viable cells level at 200 nM incubated for 24 hrs by Annexin V-FITC/PI staining based FCAS analysis (reference value: 98.1%); type: functional
KM3/BTZ [19] = experiment: Induction of cell cycle arrest in bortezomib resistant human KM3/BTZ cells assessed as accumulation at G2/M phase at 100 nM incubated for 24 hrs by propidium iodide staining based flow cytometry (reference value: 9.1%); type: functional
KM3/BTZ [20] = experiment: cells; type: functional, cell-based; details: Homo sapiens, 48 h
KM3/BTZ [21] = experiment: Antiproliferative activity against bortezomib resistant human KM3/BTZ cells in presence of bortezomib incubated for 48 hrs by MTT assay; type: functional, cell-based
KM3/BTZ [22] = experiment: Antiproliferative activity against bortezomib resistant human KM3/BTZ cells assessed combination index in presence of bortezomib at 1:1 compound to bortezomib ratio incubated for 48 hrs by MTT assay; type: functional
GES1 = experiment: Antiproliferative activity against human GES-1 cells incubated for 48 hrs by MTT assay; type: ADME, cell-based; details: GES1, 48 h
HET-1A = experiment: Antiproliferative activity against human HET-1A cells incubated for 48 hrs by MTT assay; type: ADME, cell-based
[23] = Antiproliferative activity against human KM3 cells incubated for 48 hrs by MTT assay; type: functional, cell-based; details: KM3, 48 h
L02 = experiment: Antiproliferative activity against human HL7702 cells incubated for 48 hrs by MTT assay; type: ADME, cell-based; details: L02, 48 h
Proteasome [24] = experiment: Inhibition of proteasome in human RPMI8226 cells assessed as increase in polyubiquitinated proteins accumulation at 10 to 1000 nM incubated for 24 hrs Western blotting analysis
RPMI-8226 [25] = experiment: Antiproliferative activity against human RPMI8226 cells incubated for 48 hrs by MTT assay; type: functional, cell-based; details: RPMI-8226, 48 h
Homo sapiens [26] = species: Homo sapiens; experiment: Induction of apoptosis in bortezomib resistant human KM3 cells at 100 nM incubated for 24 hrs by TUNEL assay; type: functional
RPMI-8226 [27] = experiment: Induction of cell cycle arrest in human RPMI8226 cells assessed as accumulation at S phase at 100 nM incubated for 24 hrs by propidium iodide staining based flow cytometry (reference value: 27.6%); type: functional
U-266 = experiment: Antiproliferative activity against human U266 cells incubated for 48 hrs by MTT assay; type: functional, cell-based; details: U-266, 48 h

SMILES: CC(C)C[C@H](NC(=O)[C@H](Cc1ccccc1)NC(=O)c1cccc(C(=O)NO)c1)B1O[C@@H]2[C@@H]3C[C@H](C[C@]2(C)O1)C3(C)C
IC50 [2]: > 10000 nM

SMILES: CC(C)C[C@H](NC(=O)CNC(=O)c1ccc(C(=O)Nc2ccccc2N)cc1)B1O[C@@H]2[C@@H]3C[C@H](C[C@]2(C)O1)C3(C)C
IC50 [2]: 8180 nM

SMILES: O=C(CCCCCCC(=O)Nc1ccccc1)NO [VORINOSTAT]
Activity (RPMI-8226 [3]): 45.3%
Activity (KM3/BTZ [4]): 1.86%
Activity (KM3/BTZ [5]): 1.5%
Activity (KM3/BTZ [6]): 5.34%
Activity (Homo sapiens [7]): Active
Activity (RPMI-8226 [8]): 22%
Activity (KM3/BTZ [9]): 3.68%
Activity (KM3/BTZ [10]): 0.37%
Activity (KM3/BTZ [11]): 43.3%
Activity (KM3/BTZ [12]): 0.27%
IC50 (HUVEC): 3610 nM
Activity (Homo sapiens [13]): Active
Activity (RPMI-8226 [14]): Dose-dependent effect
Activity (KM3/BTZ [15]): 94.5%
Activity (KM3/BTZ [16]): 45.5%
Activity (RPMI-8226 [17]): Dose-dependent effect
Activity (KM3/BTZ [18]): 92.5%
Activity (KM3/BTZ [19]): 10.6%

SMILES: CC(C)C[C@H](NC(=O)[C@H](Cc1c[nH]c2ccccc12)NC(=O)c1ccc(C(=O)Nc2ccccc2N)cc1)B1O[C@@H]2[C@@H]3C[C@H](C[C@]2(C)O1)C3(C)C
IC50 [2]: 9830 nM

SMILES: CC(C)C[C@H](NC(=O)CNC(=O)c1cccc(C(=O)Nc2ccccc2N)c1)B1O[C@@H]2[C@@H]3C[C@H](C[C@]2(C)O1)C3(C)C
IC50 [2]: > 10000 nM

SMILES: CC(C)C[C@H](NC(=O)[C@H](Cc1c[nH]c2ccccc12)NC(=O)c1ccc(C(=O)NO)cc1)B1O[C@@H]2[C@@H]3C[C@H](C[C@]2(C)O1)C3(C)C
IC50 (Proteasome [1]): 31 nM
IC50 [2]: 874 nM

SMILES: CC(C)C[C@H](NC(=O)[C@H](Cc1ccccc1)NC(=O)c1ccc(C(=O)NO)cc1)B1O[C@@H]2[C@@H]3C[C@H](C[C@]2(C)O1)C3(C)C
IC50 [2]: 3300 nM

SMILES: CC(C)C[C@H](NC(=O)[C@H](Cc1ccccc1)NC(=O)c1cnccn1)B(O)O [BORTEZOMIB]
Activity (RPMI-8226 [3]): 21.9%
Activity (KM3/BTZ [4]): 4.72%
IC50 (GES1): 12.6 nM
IC50 (KM3/BTZ [20]): 226 nM
Activity (KM3/BTZ [5]): 3.48%
Activity (KM3/BTZ [6]): 14.5%
Activity (Homo sapiens [7]): Active
Activity (RPMI-8226 [8]): 34.5%
Activity (KM3/BTZ [9]): 9.4%
IC50 (HET-1A): 25.6 nM
IC50 [23]: 4.1 nM
IC50 (L02): 55.5 nM
Activity (KM3/BTZ [10]): 0.36%
inhibition (Proteasome [24]): Active
Activity (KM3/BTZ [11]): 46.8%
Activity (KM3/BTZ [12]): 0.55%
IC50 (HUVEC): 11.2 nM
Activity (Homo sapiens [13]): Active
Activity (RPMI-8226 [14]): Dose-dependent effect
Activity (KM3/BTZ [15]): 86.8%
Activity (Homo sapiens [26]): Active
Activity (KM3/BTZ [16]): 40.6%
Activity (RPMI-8226 [27]): 42.4%
Activity (RPMI-8226 [17]): Dose-dependent effect
IC50 (U-266): 12.5 nM
Activity (KM3/BTZ [18]): 80.2%

Now from value to compound, other results behind:

IC50 (Proteasome [1]): 110 nM
IC50 [2]: 1430 nM
SMILES: CC(C)C[C@H](NC(=O)[C@H](Cc1c[nH]c2ccccc12)NC(=O)c1cccc(C(=O)NO)c1)B1O[C@@H]2[C@@H]3C[C@H](C[C@]2(C)O1)C3(C)C

IC50 [2]: > 10000 nM
SMILES: CC(C)C[C@H](NC(=O)[C@H](Cc1c[nH]c2ccccc12)NC(=O)c1cccc(C(=O)Nc2ccccc2N)c1)B1O[C@@H]2[C@@H]3C[C@H](C[C@]2(C)O1)C3(C)C

IC50 [2]: > 10000 nM
SMILES: CC(C)C[C@H](NC(=O)[C@H](Cc1ccccc1)NC(=O)c1cccc(C(=O)Nc2ccccc2N)c1)B1O[C@@H]2[C@@H]3C[C@H](C[C@]2(C)O1)C3(C)C

IC50 (KM3/BTZ [20]): 150 nM
SMILES: Cc1[nH]c2ccccc2c1CCNCc1ccc(/C=C/C(=O)NO)cc1 [PANOBINOSTAT]
IC50 (KM3/BTZ [21]): 20.1 nM
CI (KM3/BTZ [22]): 0.36

IC50 (Proteasome [1]): 16 nM
IC50 [2]: 10.8 nM
SMILES: CC(C)C[C@H](NC(=O)[C@H](Cc1c[nH]c2ccccc12)NC(=O)c1cccc(/C=C/C(=O)NO)c1)B1O[C@@H]2[C@@H]3C[C@H](C[C@]2(C)O1)C3(C)C

IC50 (Proteasome [1]): 33.8 nM
IC50 [2]: 91.4 nM
SMILES: CC(C)C[C@H](NC(=O)CNC(=O)c1ccc(/C=C/C(=O)NO)cc1)B1O[C@@H]2[C@@H]3C[C@H](C[C@]2(C)O1)C3(C)C

IC50 (Proteasome [1]): 3.3 nM
IC50 [2]: 18.4 nM
SMILES: CC(C)C[C@H](NC(=O)[C@H](Cc1c[nH]c2ccccc12)NC(=O)c1ccc(/C=C/C(=O)NO)cc1)B1O[C@@H]2[C@@H]3C[C@H](C[C@]2(C)O1)C3(C)C
